Results published in patent publication US11000033B2, “Ketone or oxime compound, and herbicide” (NISSAN CHEMICAL CORPORATION, priority 2014, dated 2021).

How the values were obtained:
Type in all cases: in vivo
[1] = system: directly sowed rice plant; test: Test Example 3: effect on crop by foliage application, Wagner pot (symbol b); settings: application herbicide amount 320 g/ha
How it was run: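 Steps: fill a 1/10000-are Wagner pot with alluvial soil; add water and mix to submerge at 0.1–0.5 cm depth; sow rice plus Echinochloa crus-galli var. crus-galli, Leptochloa chinensis and Cyperus difformis; grow in a 25–30 °C greenhouse.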

Scirpus juncoides = test: Test Example 2: herbicidal activity, application during weed generation in submerged conditions (symbol B); settings: Table 23; application herbicide amount 320 g/ha; grade 0-5 by criteria of Test Example 1
How it was run: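 Seeds sown in flooded alluvial soil (4 cm water) were grown in a 25-30° C greenhouse. At the one- to two-leaf stage, diluted emulsion of compound was applied to the water surface at a predetermined rate. Effect was scored 3 weeks later.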

Stellaria media = test: Test Example 4: herbicidal effect by soil treatment (symbol P); settings: application herbicide amount 320 g/ha
How it was run: (§1)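 Seeds were sown in sterilized diluvial soil, covered with about 1.5 cm of soil, and the soil surface was sprayed with a water-diluted emulsion of the compound at a predetermined rate. Plants grew in a greenhouse at 25° C. to 30° C.; effects were scored visually 3 weeks after application.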

beet = test: Test Example 4: effect on crop by soil treatment (symbol f); settings: application herbicide amount 320 g/ha
How it was run: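 Steps: fill box with sterilized diluvial soil; sow seed spot-like; cover with ~1.5 cm soil; grow in greenhouse (25° C. to 30° C.).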

Monochoria vaginalis = test: Test Example 1: herbicidal activity, application before weed generation in submerged conditions (symbol C); settings: application herbicide amount 320 g/ha
How it was run: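 0–5 visual score, 3 wk post-application. Submerged pots, alluvial soil, water 4 cm; seeds sown mixed, rice at 2.5 leaves transplanted. Emulsion diluted to predetermined dose, applied to water surface at sowing. 25–30 °C greenhouse.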

Abutilon theophrasti = test: Test Example 4: herbicidal effect by soil treatment (symbol M); settings: application herbicide amount 320 g/ha
How it was run: as §1

[2] = system: Echinochloa crus-galli var. crus-galli; test: Test Example 5: herbicidal effect by foliage application, plastic box (symbol H); settings: 320 g/ha, 3 weeks after application
How it was run: (§2)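 Sowing in sterilized diluvial soil, 14 days' greenhouse growth at 25° C. to 30° C., then uniform small-sprayer foliar application of aqueous emulsion dilution; plants scored three weeks afterwards.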

soybean = test: Test Example 5: effect on crop by foliage application, plastic box (symbol d); settings: 320 g/ha, 3 weeks after application
How it was run: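 Crop and weed seeds sown in spots in sterilized diluvial soil in plastic boxes and covered with about 1.5 cm soil. Plants raised in a greenhouse at 25° C. to 30° C. for foliar application.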

Lolium multiflorum Lam. = test: Test Example 5: herbicidal effect by foliage application, plastic box (symbol K); settings: 320 g/ha, 3 weeks after application
How it was run: as §2

CON=C(C)CC1CC(O)=C(c2c(C)cc(-c3ccc(Cl)cc3)cc2OC)C1=O (stereo not drawn) [6-077, 2-(4′-chloro-3-methoxy-5-methyl-[1,1′-biphenyl]-4-yl)-3-hydroxy-5-{2-(methoxyimino)propyl}cyclopent-2-enone]
effect on crop b (directly sowed rice plant), grade 0-5 [1]: 5 (Herbicidal ratio of 90% or more (almost completely withered)) | Herbicidal effect grade, B: Scirpus juncoides (Scirpus juncoides): 4 (Herbicidal ratio of 70% or higher and lower than 90%) | P: Stellaria media, herbicidal effect grade (Stellaria media): 3 (Herbicidal ratio of 40% or higher and lower than 70%) | f: beet, effect on crop grade (beet): 1 (Herbicidal ratio of 5% or higher and lower than 20%) | Herbicidal effect grade, C: Monochoria vaginalis (Monochoria vaginalis): 3 (Herbicidal ratio of 40% or higher and lower than 70%) | M: Abutilon theophrasti, herbicidal effect grade (Abutilon theophrasti): 5 (Herbicidal ratio of 90% or more (almost completely withered)) | H: Echinochloa crus-galli var. crus-galli, herbicidal effect (criteria of Test Example 1) [2]: 5 (Herbicidal ratio of 90% or more (almost completely withered)) | d: soybean, effect on crop (criteria of Test Example 1) (soybean): 2 (Herbicidal ratio of 20% or higher and lower than 40%) | K: Lolium multiflorum Lam., herbicidal effect (criteria of Test Example 1) (Lolium multiflorum Lam.): 5 (Herbicidal ratio of 90% or more (almost completely withered))

CC#Cc1cc(C)c(C2=C(O)CC(CC(C)=O)C2=O)c(C)c1 (stereo not drawn) [7-010]
effect on crop b (directly sowed rice plant), grade 0-5 [1]: 5 (Herbicidal ratio of 90% or more (almost completely withered)) | Herbicidal effect grade, B: Scirpus juncoides (Scirpus juncoides): 5 (Herbicidal ratio of 90% or more (almost completely withered)) | Herbicidal effect grade, P: Stellaria media (Stellaria media): 0 (Herbicidal ratio of 5% or lower (almost no effect)) | Effect on crop grade, f: beet (beet): 0 (Herbicidal ratio of 5% or lower (almost no effect)) | Herbicidal effect grade, C: Monochoria vaginalis (Monochoria vaginalis): 1 (Herbicidal ratio of 5% or higher and lower than 20%) | Herbicidal effect grade, M: Abutilon theophrasti (Abutilon theophrasti): 4 (Herbicidal ratio of 70% or higher and lower than 90%) | H: Echinochloa crus-galli var. crus-galli, herbicidal effect (criteria of Test Example 1) [2]: 5 (Herbicidal ratio of 90% or more (almost completely withered)) | d: soybean, effect on crop (criteria of Test Example 1) (soybean): 3 (Herbicidal ratio of 40% or higher and lower than 70%) | K: Lolium multiflorum Lam., herbicidal effect (criteria of Test Example 1) (Lolium multiflorum Lam.): 5 (Herbicidal ratio of 90% or more (almost completely withered))

CON=C(C)CC1CC(OC(=O)N(C)C)=C(c2c(C)cc(C)cc2OC)C1=O (stereo not drawn) [6-109]
effect on crop b (directly sowed rice plant), grade 0-5 [1]: 5 (Herbicidal ratio of 90% or more (almost completely withered)) | Herbicidal effect grade, B: Scirpus juncoides (Scirpus juncoides): 2 (Herbicidal ratio of 20% or higher and lower than 40%) | Herbicidal effect grade, P: Stellaria media (Stellaria media): 0 (Herbicidal ratio of 5% or lower (almost no effect)) | Effect on crop grade, f: beet (beet): 0 (Herbicidal ratio of 5% or lower (almost no effect)) | Herbicidal effect grade, C: Monochoria vaginalis (Monochoria vaginalis): 3 (Herbicidal ratio of 40% or higher and lower than 70%) | Herbicidal effect grade, M: Abutilon theophrasti (Abutilon theophrasti): 0 (Herbicidal ratio of 5% or lower (almost no effect)) | H: Echinochloa crus-galli var. crus-galli, herbicidal effect (criteria of Test Example 1) [2]: 5 (Herbicidal ratio of 90% or more (almost completely withered)) | d: soybean, effect on crop (criteria of Test Example 1) (soybean): 2 (Herbicidal ratio of 20% or higher and lower than 40%) | K: Lolium multiflorum Lam., herbicidal effect (criteria of Test Example 1) (Lolium multiflorum Lam.): 5 (Herbicidal ratio of 90% or more (almost completely withered))

CON=C(C)CC1CC(OC(=O)COc2ccccc2)=C(c2c(C)cc(-c3ccccc3)cc2OC)C1=O (stereo not drawn) [6-100]
effect on crop b (directly sowed rice plant), grade 0-5 [1]: 5 (Herbicidal ratio of 90% or more (almost completely withered)) | Herbicidal effect grade, B: Scirpus juncoides (Scirpus juncoides): 5 (Herbicidal ratio of 90% or more (almost completely withered)) | Herbicidal effect grade, P: Stellaria media (Stellaria media): 4 (Herbicidal ratio of 70% or higher and lower than 90%) | Effect on crop grade, f: beet (beet): 0 (Herbicidal ratio of 5% or lower (almost no effect)) | Herbicidal effect grade, C: Monochoria vaginalis (Monochoria vaginalis): 5 (Herbicidal ratio of 90% or more (almost completely withered)) | Herbicidal effect grade, M: Abutilon theophrasti (Abutilon theophrasti): 4 (Herbicidal ratio of 70% or higher and lower than 90%) | H: Echinochloa crus-galli var. crus-galli, herbicidal effect (criteria of Test Example 1) [2]: 5 (Herbicidal ratio of 90% or more (almost completely withered)) | d: soybean, effect on crop (criteria of Test Example 1) (soybean): 3 (Herbicidal ratio of 40% or higher and lower than 70%) | K: Lolium multiflorum Lam., herbicidal effect (criteria of Test Example 1) (Lolium multiflorum Lam.): 5 (Herbicidal ratio of 90% or more (almost completely withered))

CC(=O)CC1CC(O)=C(c2c(C)cc(-c3ccc(C)cc3)cc2C)C1=O (stereo not drawn) [7-007]
effect on crop b (directly sowed rice plant), grade 0-5 [1]: 5 (Herbicidal ratio of 90% or more (almost completely withered)) | Herbicidal effect grade, B: Scirpus juncoides (Scirpus juncoides): 0 (Herbicidal ratio of 5% or lower (almost no effect)) | Herbicidal effect grade, P: Stellaria media (Stellaria media): 0 (Herbicidal ratio of 5% or lower (almost no effect)) | Effect on crop grade, f: beet (beet): 0 (Herbicidal ratio of 5% or lower (almost no effect)) | Herbicidal effect grade, C: Monochoria vaginalis (Monochoria vaginalis): 3 (Herbicidal ratio of 40% or higher and lower than 70%) | Herbicidal effect grade, M: Abutilon theophrasti (Abutilon theophrasti): 0 (Herbicidal ratio of 5% or lower (almost no effect)) | H: Echinochloa crus-galli var. crus-galli, herbicidal effect (criteria of Test Example 1) [2]: 5 (Herbicidal ratio of 90% or more (almost completely withered)) | d: soybean, effect on crop (criteria of Test Example 1) (soybean): 0 (Herbicidal ratio of 5% or lower (almost no effect)) | K: Lolium multiflorum Lam., herbicidal effect (criteria of Test Example 1) (Lolium multiflorum Lam.): 5 (Herbicidal ratio of 90% or more (almost completely withered))

CON=C(C)CC1CC(O)=C(c2c(F)cc(-c3ccccc3)cc2OC)C1=O (stereo not drawn) [6-107]
effect on crop b (directly sowed rice plant), grade 0-5 [1]: 5 (Herbicidal ratio of 90% or more (almost completely withered)) | Herbicidal effect grade, B: Scirpus juncoides (Scirpus juncoides): 5 (Herbicidal ratio of 90% or more (almost completely withered)) | Herbicidal effect grade, P: Stellaria media (Stellaria media): 2 (Herbicidal ratio of 20% or higher and lower than 40%) | Effect on crop grade, f: beet (beet): 1 (Herbicidal ratio of 5% or higher and lower than 20%) | Herbicidal effect grade, C: Monochoria vaginalis (Monochoria vaginalis): 5 (Herbicidal ratio of 90% or more (almost completely withered)) | Herbicidal effect grade, M: Abutilon theophrasti (Abutilon theophrasti): 4 (Herbicidal ratio of 70% or higher and lower than 90%) | H: Echinochloa crus-galli var. crus-galli, herbicidal effect (criteria of Test Example 1) [2]: 5 (Herbicidal ratio of 90% or more (almost completely withered)) | d: soybean, effect on crop (criteria of Test Example 1) (soybean): 1 (Herbicidal ratio of 5% or higher and lower than 20%) | K: Lolium multiflorum Lam., herbicidal effect (criteria of Test Example 1) (Lolium multiflorum Lam.): 5 (Herbicidal ratio of 90% or more (almost completely withered))

CCc1cc(Br)cc(C)c1C1=C(O)CC(CC(C)=O)C1=O (stereo not drawn) [7-003]
effect on crop b (directly sowed rice plant), grade 0-5 [1]: 5 (Herbicidal ratio of 90% or more (almost completely withered)) | Herbicidal effect grade, B: Scirpus juncoides (Scirpus juncoides): 0 (Herbicidal ratio of 5% or lower (almost no effect)) | Herbicidal effect grade, P: Stellaria media (Stellaria media): 0 (Herbicidal ratio of 5% or lower (almost no effect)) | Effect on crop grade, f: beet (beet): 0 (Herbicidal ratio of 5% or lower (almost no effect)) | Herbicidal effect grade, C: Monochoria vaginalis (Monochoria vaginalis): 0 (Herbicidal ratio of 5% or lower (almost no effect)) | Herbicidal effect grade, M: Abutilon theophrasti (Abutilon theophrasti): 0 (Herbicidal ratio of 5% or lower (almost no effect)) | H: Echinochloa crus-galli var. crus-galli, herbicidal effect (criteria of Test Example 1) [2]: 5 (Herbicidal ratio of 90% or more (almost completely withered)) | d: soybean, effect on crop (criteria of Test Example 1) (soybean): 2 (Herbicidal ratio of 20% or higher and lower than 40%) | K: Lolium multiflorum Lam., herbicidal effect (criteria of Test Example 1) (Lolium multiflorum Lam.): 5 (Herbicidal ratio of 90% or more (almost completely withered))

CON=C(C)CC1CC(O)=C(c2c(C)cc(-n3cccn3)cc2C)C1=O (stereo not drawn) [6-073]
effect on crop b (directly sowed rice plant), grade 0-5 [1]: 5 (Herbicidal ratio of 90% or more (almost completely withered)) | Herbicidal effect grade, B: Scirpus juncoides (Scirpus juncoides): 2 (Herbicidal ratio of 20% or higher and lower than 40%) | P: Stellaria media, herbicidal effect grade (Stellaria media): 0 (Herbicidal ratio of 5% or lower (almost no effect)) | f: beet, effect on crop grade (beet): 0 (Herbicidal ratio of 5% or lower (almost no effect)) | Herbicidal effect grade, C: Monochoria vaginalis (Monochoria vaginalis): 1 (Herbicidal ratio of 5% or higher and lower than 20%) | M: Abutilon theophrasti, herbicidal effect grade (Abutilon theophrasti): 0 (Herbicidal ratio of 5% or lower (almost no effect)) | H: Echinochloa crus-galli var. crus-galli, herbicidal effect (criteria of Test Example 1) [2]: 5 (Herbicidal ratio of 90% or more (almost completely withered)) | d: soybean, effect on crop (criteria of Test Example 1) (soybean): 0 (Herbicidal ratio of 5% or lower (almost no effect)) | K: Lolium multiflorum Lam., herbicidal effect (criteria of Test Example 1) (Lolium multiflorum Lam.): 5 (Herbicidal ratio of 90% or more (almost completely withered))
